According to patent US9434711B2 (Janssen Pharmaceutica, NV, priority 2007, dated 2016):
Like-named read-outs stand apart in the source and are kept apart here.

Target: canine TRPM8 (Canis lupus familiaris, UniProt Q1A7N1)
Test: In Vitro Canine TRPM8 Functional Assay (Ca2+ fluorescence, icilin activation)
Assay type: cell-based
Details: for IC50: read-out: IC50
Method in brief: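 Eight-point dose-response curves in quadruplicate gave EC50 or IC50 values from a Ca2+-sensitive dye assay in HEK293 cells stably carrying canine TRPM8. Icilin, dosed near its 80% maximal level, followed a 5 min compound exposure.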

[1] = HEK293 cells stably expressing canine TRPM8, icilin activation, eight-point dose-response
[2] = compound at 0.2 μM, canine TRPM8, icilin activation, read-out: % Inh @ 0.2
[3] = 0.2 μM compound, HEK293 cells stably expressing canine TRPM8, icilin activation, read-out: % Inh @ 0.2
[4] = HEK293 cells stably expressing canine TRPM8, icilin activation, average of two or more determinations

canine TRPM8, sequence (Q1A7N1 1-1104): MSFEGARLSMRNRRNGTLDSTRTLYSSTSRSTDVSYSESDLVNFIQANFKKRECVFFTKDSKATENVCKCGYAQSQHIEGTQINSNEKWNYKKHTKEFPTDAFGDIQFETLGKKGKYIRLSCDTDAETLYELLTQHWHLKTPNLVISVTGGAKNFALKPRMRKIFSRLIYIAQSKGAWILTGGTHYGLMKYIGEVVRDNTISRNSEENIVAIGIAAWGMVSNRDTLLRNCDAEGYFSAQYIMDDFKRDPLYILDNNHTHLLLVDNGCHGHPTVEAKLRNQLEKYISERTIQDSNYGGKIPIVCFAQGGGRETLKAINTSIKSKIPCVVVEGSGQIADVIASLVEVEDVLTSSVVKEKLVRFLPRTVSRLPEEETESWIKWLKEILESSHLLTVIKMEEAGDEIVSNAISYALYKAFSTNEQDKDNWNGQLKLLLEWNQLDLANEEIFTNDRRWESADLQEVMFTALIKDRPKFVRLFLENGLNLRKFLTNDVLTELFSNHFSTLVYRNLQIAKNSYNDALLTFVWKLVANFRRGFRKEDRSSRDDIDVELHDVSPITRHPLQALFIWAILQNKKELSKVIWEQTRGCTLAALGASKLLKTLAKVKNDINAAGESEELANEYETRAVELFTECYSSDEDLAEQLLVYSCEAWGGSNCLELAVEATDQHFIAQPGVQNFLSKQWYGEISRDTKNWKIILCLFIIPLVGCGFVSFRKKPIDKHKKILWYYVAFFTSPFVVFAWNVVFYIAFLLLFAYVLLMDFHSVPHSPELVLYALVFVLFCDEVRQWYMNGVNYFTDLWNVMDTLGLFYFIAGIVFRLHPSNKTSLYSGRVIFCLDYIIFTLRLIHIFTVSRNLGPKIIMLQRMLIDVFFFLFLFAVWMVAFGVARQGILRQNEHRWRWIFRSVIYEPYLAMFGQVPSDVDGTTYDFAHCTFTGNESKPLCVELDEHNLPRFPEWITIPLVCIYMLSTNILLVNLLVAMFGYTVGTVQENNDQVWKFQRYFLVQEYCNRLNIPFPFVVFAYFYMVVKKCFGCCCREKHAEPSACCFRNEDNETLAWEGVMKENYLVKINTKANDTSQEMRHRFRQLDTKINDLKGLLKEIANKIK

SMILES | IC50 [1] [nM] | inhibition at 0.2 µM [2] [%] | inhibition at 0.2 µM [3] [%] | IC50 [4] [nM] | other results
Cc1c(N(Cc2ccc(F)c(C(F)(F)F)c2)S(=O)(=O)CCCCn2ccnc2)sc2ccccc12 [Compound 779, N-(4-Fluoro-3-trifluoromethyl-benzyl)-N-(3-methyl-benzo[b]thiophen-2-yl)-4-(imidazol-1-yl)-butane-1-sulfonamide] | 48.7 | 79 |  |  | 
CS(=O)(=O)Nc1ccc(S(=O)(=O)N(Cc2ccc(F)c(C(F)(F)F)c2)c2sc3ccccc3c2Cl)c(O)c1 [Compound 780, N-(3-Chloro-benzo[b]thiophen-2-yl)-N-(4-fluoro-3-trifluoromethyl-benzyl)-2-hydroxy-4-methanesulfonylamino-benzenesulfonamide] | 145 | 72 |  |  | 
CC(C)(O)c1c(N(Cc2ccc(OC(F)(F)F)cc2)S(=O)(=O)c2ccc(C(=O)[O-])cc2)sc2ccccc12.[Na+] [Compound 781, Sodium, N-(3-(1-Hydroxy-1-methyl-ethyl)-benzo[b]thiophen-2-yl)-N-(4-trifluoromethoxy)benzyl-4-carboxy-benzenesulfonamide] | 3 |  |  |  | % Inh @ 0.2 (μM) (compound at 0.2 μM, canine TRPM8, icilin activation): 102%
Cc1c(N(CCC2CC2)S(=O)(=O)c2ccc(C(=O)N[C@H]3CCNC3)cc2)sc2ccccc12 [Compound 782, (S)-4-[(2-Cyclopropyl-ethyl)-(3-methyl-benzo[b]thiophen-2-yl)-sulfamoyl]-N-pyrrolidin-3-yl-benzamide] |  | 33 |  |  | 
Cc1c(N(CCC2CC2)S(=O)(=O)c2ccc(C(=O)N[C@@H]3CCNC3)cc2)sc2ccccc12 [Compound 783, (R)-4-[(2-Cyclopropyl-ethyl)-(3-methyl-benzo[b]thiophen-2-yl)-sulfamoyl]-N-pyrrolidin-3-yl-benzamide] |  | 38 |  |  | 
Cc1c(N(Cc2ccc(F)c(C(F)(F)F)c2)S(=O)(=O)c2ccc(-c3nsc(=O)[nH]3)cc2)sc2ccccc12 [Compound 784, N-(3-Methyl-benzo[b]thiophen-2-yl)-N-(4-fluoro-3-trifluoromethyl-benzyl)-4-(5-oxo-4,5-dihydro-[1,2,4]thiadiazol-3-yl)-benzenesulfonamide] | 3.3 | 102 |  |  | 
Cc1c(N(Cc2ccc(OC(F)(F)F)cc2)S(=O)(=O)c2ccc(-c3nnn[nH]3)cc2)sc2ccccc12 [Compound 785, N-(3-Methyl-benzo[b]thiophen-2-yl)-N-(4-trifluoromethoxy-benzyl)-4-(1H-tetrazol-5-yl)-benzenesulfonamide] | 2.2 | 102 |  |  | 
Cc1c(N(CCCCC(F)(F)F)S(=O)(=O)c2ccc(N(C)C)nc2)sc2ccccc12 [Compound 787] | 14.9 | 102 |  |  | 
Cc1c(N(CCCCC(F)(F)F)S(=O)(=O)c2cnccc2N2CCOCC2)sc2ccccc12 [Compound 788, N-(3-Methyl-benzo[b]thiophen-2-yl)-N-(5,5,5-trifluoro-pentyl)-4-morpholino-3-pyridyl-sulfonamide] | 25.9 |  |  |  | 
Cc1c(N(CCCCC(F)(F)F)S(=O)(=O)c2ccc(N3CCOCC3)nc2)sc2ccccc12 [Compound 788] |  | 100 |  |  | 
Cc1c(N(Cc2ccc(OC(F)(F)F)cc2)S(=O)(=O)c2ccc(N(C)C)nc2)sc2ccccc12 [Compound 789] | 11.7 | 102 |  |  | 
Cc1c(N(Cc2ccc(OC(F)(F)F)cc2)S(=O)(=O)c2ccc(N3CCOCC3)nc2)sc2ccccc12 [Compound 790] | 22 | 101 |  |  | 
COC(=O)CS(=O)(=O)N(Cc1ccc(F)c(C(F)(F)F)c1)c1sc2ccccc2c1C [Compound 791, N-(4-Fluoro-3-trifluoromethyl-benzyl)-N-(3-methyl-benzo[b]thiophen-2-yl)-carbomethoxy-methanesulfonamide] | 23.1 | 95 |  |  | 
Cc1c(N(Cc2ccc(F)c(C(F)(F)F)c2)S(=O)(=O)CC(=O)O)sc2ccccc12 [Compound 792, N-(4-Fluoro-3-trifluoromethyl-benzyl)-N-(3-methyl-benzo[b]thiophen-2-yl)-carboxy-methanesulfonamide] |  | 23 |  |  | 
Cc1c(N(Cc2ccc(F)c(C(F)(F)F)c2)S(=O)(=O)CCO)sc2ccccc12 [Compound 793, N-(4-Fluoro-3-trifluoromethyl-benzyl)-N-(3-methyl-benzo[b]thiophen-2-yl)-2-hydroxy-ethanesulfonamide] | 15.5 | 102 |  |  | 
COC(=O)CCS(=O)(=O)N(Cc1ccc(OC(F)(F)F)cc1)c1sc2ccccc2c1C [Compound 794, N-(3-Methyl-benzo[b]thiophen-2-yl)-N-(4-trifluoromethoxy-benzyl)-2-carbomethoxy-ethanesulfonamide] | 29.4 | 101 |  |  | 
Cc1c(N(Cc2ccc(OC(F)(F)F)cc2)S(=O)(=O)CCC(=O)O)sc2ccccc12 [Compound 795, N-(3-Methyl-benzo[b]thiophen-2-yl)-N-(4-trifluoromethoxy-benzyl)-2-carboxy-ethanesulfonamide] |  |  | 100 | 24.6 | 

SMILES | IC50 [1] [nM] | inhibition at 0.2 µM [2] [%] | inhibition at 0.2 µM [3] [%] | IC50 [4] [nM] | other results
Cc1c(N(Cc2ccc(OC(F)(F)F)cc2)S(=O)(=O)CCC(C)(C)O)sc2ccccc12 [Compound 796, N-(3-Methyl-benzo[b]thiophen-2-yl)-N-(4-trifluoromethoxy-benzyl)-3-hydroxy-3-methyl-butane-1-sulfonamide] |  |  | 101 | 24.2 | 
Cc1c(N(Cc2ccc(F)c(C(F)(F)F)c2)S(=O)(=O)CCBr)sc2ccccc12 [Compound 797, N-(4-Fluoro-3-trifluoromethyl-benzyl)-N-(3-methyl-benzo[b]thiophen-2-yl)-2-bromo-ethane-1-sulfonamide] |  |  |  | 4.8 | inhibition at 0.2 µM (HEK293, read-out: % Inh @ 0.2 (μM)): 102%
Cc1c(N(Cc2ccc(OC(F)(F)F)cc2)S(=O)(=O)c2ccc(N(C)C)cc2)sc2ccccc12 [Compound 799, N-(3-Methyl-benzo[b]thiophen-2-yl)-N-(4-trifluoromethoxy-benzyl)-4-dimethylamino-benzenesulfonamide] |  |  | 102 | 3.9 | 
Cc1c(N(Cc2ccc(OC(F)(F)F)cc2)S(=O)(=O)c2ccc(N3CCOCC3)cc2)sc2ccccc12 [Compound 800, N-(3-Methyl-benzo[b]thiophen-2-yl)-N-(4-trifluoromethoxy-benzyl)-4-morpholino-benzenesulfonamide] |  |  | 102 | 6.8 | 
Cc1c(N(Cc2ccc(OC(F)(F)F)cc2)S(=O)(=O)c2ccc(-c3noc(=O)[nH]3)cc2)sc2ccccc12 [Compound 801, N-(3-Methyl-benzo[b]thiophen-2-yl)-N-(4-trifluoromethoxy-benzyl)-4-(5-oxo-4,5-dihydro-[1,2,4]oxadiazol-3-yl)-benzenesulfonamide] |  |  | 102 | 2.8 | 
CCS(=O)(=O)N(Cc1cc(F)c(F)c(OC)c1F)c1sc2ccccc2c1C(C)(C)O [Compound 802, N-[3-(1-Hydroxy-1-methyl-ethyl)-benzo[b]thiophen-2-yl]-N-(2,4,5-trifluoro-3-methoxy-benzyl)-ethanesulfonamide] |  |  | 101 | 8 | 
C=C(C)c1c(N(Cc2cc(F)c(F)c(OC)c2F)S(=O)(=O)CC)sc2ccccc12 [Compound 803, N-(3-Isopropenyl-benzo[b]thiophen-2-yl)-N-(2,4,5-trifluoro-3-methoxy-benzyl)-ethanesulfonamide] |  |  | 101 | 30.8 | 
Cc1c(N(CCC2CC2)S(=O)(=O)c2cnccc2-c2nnn[nH]2)sc2ccccc12 [Compound 804, N-(3-Methyl-benzo[b]thiophen-2-yl)-N-(cyclopropyl-ethyl)-4-(1H-tetrazol-5-yl)-pyridin-3-ylsulfonamide] |  |  |  | 11.1 | 
Cc1c(N(CCC2CC2)S(=O)(=O)c2ccc(-c3nnn[nH]3)nc2)sc2ccccc12 [Compound 804] |  |  | 102 |  | 
Cc1c(N(Cc2ccc(OC(F)(F)F)cc2)S(=O)(=O)c2ccc(-c3nnn[nH]3)nc2)sc2ccccc12 [Compound 805] |  |  | 103 | 2.2 | 
Cc1c(N(CCCCC(F)(F)F)S(=O)(=O)c2cnccc2-c2nnn[nH]2)sc2ccccc12 [Compound 806, N-(3-Methyl-benzo[b]thiophen-2-yl)-N-(5,5,5-trifluoro-pentyl)-4-(1H-tetrazol-5-yl)-pyridin-3-ylsulfonamide] |  |  |  | 13 | 
Cc1c(N(CCCCC(F)(F)F)S(=O)(=O)c2ccc(-c3nnn[nH]3)nc2)sc2ccccc12 [Compound 806] |  |  | 102 |  | 
Cc1c(N(CCC2CC2)S(=O)(=O)c2ccc(-c3noc(=O)[nH]3)nc2)sc2ccccc12 [Compound 807] |  |  | 103 | 6 | 
Cc1c(N(Cc2ccc(OC(F)(F)F)cc2)S(=O)(=O)c2cnccc2-c2noc(=O)[nH]2)sc2ccccc12 [Compound 808, N-(3-Methyl-benzo[b]thiophen-2-yl)-N-(4-trifluoromethoxy-benzyl)-4-(5-oxo-4,5-dihydro-[1,2,4]oxadiazol-3-yl)-pyrid-3-ylsulfonamide] |  |  |  | 0.7 | 
Cc1c(N(Cc2ccc(OC(F)(F)F)cc2)S(=O)(=O)c2ccc(-c3noc(=O)[nH]3)nc2)sc2ccccc12 [Compound 808] |  |  | 102 |  | 
Cc1c(N(Cc2ccc(OC(F)(F)F)cc2)S(=O)(=O)c2ccc(-c3nsc(=O)[nH]3)cc2)sc2ccccc12 [Compound 810, N-(3-Methyl-benzo[b]thiophen-2-yl)-N-(4-trifluoromethoxy-benzyl)-4-(5-oxo-4,5-dihydro-[1,2,4]thiadiazol-3-yl)-benzenesulfonamide] |  |  | 102 | 1 | 
Cc1c(N(CCCCC(F)(F)F)S(=O)(=O)c2ccc(-c3n[nH]c(=O)[nH]3)cc2)sc2ccccc12 [Compound 811, N-(3-Methyl-benzo[b]thiophen-2-yl)-N-(5,5,5-trifluoro-pentyl)-4-(5-oxo-4,5-dihydro-1H-[1,2,4]triazol-3-yl)-benzenesulfonamide] |  |  | 103 | 3.7 | 
